Experimental data taken from patent US11766420B2 (priority 2015, dated 2023).

Tested on: HEK293T cells
Details: human

Q: COc1ncc(-c2ccc3nc(N)n(-c4ccc(N5CCOCC5)cc4)c3c2)cc1S(=O)(=O)Nc1ccccc1F [A1, 5-(2-amino-1-(4-(4-morpholinyl)phenyl)-1H-benzimidazol-6-yl)-N-(2-fluorophenyl)-2-methoxy-3-pyridinesulfonamide] was tested. Which “Concentration that killed most of the cells (MTT)” value did it give?
A: ≥ 250 nM
